Results on 21 compounds are retold here after US8188139B2, “Heterocyclic-substituted phenyl methanones” (Hoffman-La Roche Inc., priority 2005, dated 2012).

A word on the IC50: it is the concentration needed to halve the response being measured.

Each structure is given as a SMILES string.

This assay addresses T1, mGlyT-1b (Mus musculus, UniProt P28571).
T1 construct: host or cells: Flp-in-CHO
T1 sequence (P28571 1-651 isoform P28571-2): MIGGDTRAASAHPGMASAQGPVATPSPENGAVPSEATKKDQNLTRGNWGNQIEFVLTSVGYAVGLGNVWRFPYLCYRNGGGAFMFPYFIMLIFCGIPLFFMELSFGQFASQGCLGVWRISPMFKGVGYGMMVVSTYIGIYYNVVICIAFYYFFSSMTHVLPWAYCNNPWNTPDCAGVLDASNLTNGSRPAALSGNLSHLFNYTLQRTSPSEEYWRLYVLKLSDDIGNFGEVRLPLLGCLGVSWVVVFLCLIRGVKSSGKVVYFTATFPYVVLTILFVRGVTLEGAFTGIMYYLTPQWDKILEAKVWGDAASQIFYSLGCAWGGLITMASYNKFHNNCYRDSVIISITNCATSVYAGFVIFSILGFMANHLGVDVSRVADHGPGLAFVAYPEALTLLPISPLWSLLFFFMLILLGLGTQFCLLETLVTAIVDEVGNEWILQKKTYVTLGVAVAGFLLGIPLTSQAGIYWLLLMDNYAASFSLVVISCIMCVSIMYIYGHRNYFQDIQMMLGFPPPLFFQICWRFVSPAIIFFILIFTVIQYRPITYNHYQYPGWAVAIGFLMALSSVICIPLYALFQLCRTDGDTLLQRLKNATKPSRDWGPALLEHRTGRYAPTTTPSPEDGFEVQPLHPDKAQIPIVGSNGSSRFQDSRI
Briefly: Glycine uptake inhibition assay (mGlyT-1b). It is filed as cell-based. To be noted: inhibition of [3H]-glycine uptake in Flp-in-CHO cells transfected with mGlyT-1b cDNA; 20 min preincubation at 22° C.; read-out: IC50 (μM) at GlyT-1. On the procedure: DMEM complete medium: Nutrient mixture F-12 (Gibco Life-technologies), fetal bovine serum (FBS) 5%, (Gibco life technologies), Penicillin/Streptomycin1% (Gibco life technologies), Hygromycin 0.6 mg/ml (Gibco life technologies), Glutamine 1 mM Gibco life technologies)
Uptake buffer (UB): 150 mM NaCl, 10 mM Hepes-Tris, pH 7.4, 1 mM CaCl2, 2.5 mM KCl, 2.5 mM MgSO4, 10 mM (+) D-glucose.
Flp-in™-CHO (Invitrogen Cat n^o R758-07) cells stably transfected with mGlyT1b cDNA.
Glycine Uptake Inhibition Assay (mGlyT-1b)
On day 1 mammalian cells, (Flp-in™-CHO), transfected with mGlyT-1b cDNA, were plated at the density of 40,000 cells/well in complete F-12 medium, without hygromycin in 96-well culture plates. On day 2, the medium was aspirated, and the cells were washed twice with uptake buffer (UB). The cells were then incubated for 20 min at 22° C. with either (i) no potential competitor, (ii) 10 mM non-radioactive glycine, (iii) a concentration of a potential inhibitor. A range of concentrations of the potential inhibitor was used to generate data for calculating the concentration of inhibitor resulting in 50% of the effect (e.g. IC50, the concentration of the competitor inhibiting glycine uptake of 50%). A solution was then immediately added containing [^3H]-glycine 60 nM (11-16 Ci/mmol) and 25 μM non-radioactive glycine. The plates were incubated with gentle shaking, and the reaction was stopped by aspiration of the mixture and washing (three times) with ice-cold UB. The cells were lysed with scintillation liquid, shaken 3 hours, and the radioactivity in the cells was counted using a scintillation counter.

Regarding `C[C@H](Oc1ccc(S(C)(=O)=O)cc1C(=O)N1Cc2cc(F)c(C3CCOCC3)cc2C1)C(F)(F)F` [Example 366, [5-Fluoro-6-(tetrahydro-pyran-4-yl)-1,3-dihydro-isoindol-2-yl]-[5-methanesulfonyl-2-((S)-2,2,2-trifluoro-1-methyl-ethoxy)-phenyl]-methanone], the IC50 is 0.002 µM.
Take `CS(=O)(=O)c1ccc(-c2ccc(F)cc2)c(C(=O)N2Cc3ccc(C4CCOCC4)cc3C2)c1` [Example 283, (4′-Fluoro-4-methanesulfonyl-biphenyl-2-yl)-[5-(tetrahydro-pyran-4-yl)-1,3-dihydro-isoindol-2-yl]-methanone]: the IC50 stood at 0.016 µM.
In the case of `COc1cc2c(cc1Cl)CN(C(=O)c1cc(S(C)(=O)=O)ccc1O[C@@H](C)C(F)(F)F)C2` [Example 27, (5-Chloro-6-methoxy-1,3-dihydro-isoindol-2-yl)-[5-methanesulfonyl-2-((S)-2,2,2-trifluoro-1-methyl-ethoxy)-phenyl]-methanone], the IC50 is 0.022 µM.
Take `COc1cc2c(cc1Cl)CN(C(=O)c1cc(S(C)(=O)=O)ccc1O[C@H](C)C(F)(F)F)C2` [Example 218, (5-Chloro-6-methoxy-1,3-dihydro-isoindol-2-yl)-[5-methane-sulfonyl-2-((R)-2,2,2-trifluoro-1-methyl-ethoxy)-phenyl]-methanone]: the IC50 worked out at 0.04 µM.
As to `C[C@H](Oc1ccc(S(C)(=O)=O)cc1C(=O)N1Cc2ccc(OC(F)(F)F)cc2C1)C(F)(F)F` [Example 103, [5-Methanesulfonyl-2-((S)-2,2,2-trifluoro-1-methyl-ethoxy)-phenyl]-(5-trifluoro-methoxy-1,3-dihydro-isoindol-2-yl)-methanone], the IC50 is 0.046 µM.
Regarding `C[C@H](Oc1ccc(S(C)(=O)=O)cc1C(=O)N1Cc2ccc(-c3ccsc3)cc2C1)C(F)(F)F` [Example 330, [5-Methanesulfonyl-2-(2,2,2-trifluoro-1-methyl-ethoxy)-phenyl]-(5-thiophen-3-yl-1,3-dihydro-isoindol-2-yl)-methanone], the IC50 is 0.02 µM.
Take `CS(=O)(=O)c1ccc(-c2ccc(F)cc2)c(C(=O)N2Cc3cc(C(F)(F)F)cnc3C2)c1` [Example 140, (4′-Fluoro-4-methanesulfonyl-biphenyl-2-yl)-(3-trifluoromethyl-5,7-dihydro-pyrrolo[3,4-b]pyridin-6-yl)-methanone]: the IC50 was found to be 0.036 µM.
For the compound `CC(C)COc1ccc(S(C)(=O)=O)cc1C(=O)N1Cc2cc(Cl)c(N3CCOCC3)cc2C1` [Example 248, (5-Chloro-6-morpho-lin-4-yl-1,3-dihydro-isoindol-2-yl)-(2-isobutoxy-5-methanesulfonyl-phenyl)-methanone], the concentration for half-maximal inhibition (IC50) came to 0.026 µM.
As for `C[C@H](Oc1ccc(S(C)(=O)=O)cc1C(=O)N1Cc2cc(Cl)c(N3C[C@@H]4C[C@H]3CO4)cc2C1)C(F)(F)F` [Example 365, ((1S,4S)-5-Chloro-6-2-oxa-5-aza-bicyclo[2.2.1]hept-5-yl-1,3-dihydro-isoindol-2-yl)-[5-methanesulfonyl-2-((S)-2,2,2-trifluoro-1-methyl-ethoxy)-phenyl]-methanone], the half-maximal inhibitory concentration (IC50) came out at 0.033 µM.
Turning to `C[C@H](Oc1ccc(S(C)(=O)=O)cc1C(=O)N1Cc2ccc(CC(F)(F)F)cc2C1)C(F)(F)F` [Example 290, [5-Methanesulfonyl-2-((S)-2,2,2-trifluoro-1-methyl-ethoxy)-phenyl]-[5-(2,2,2-tri-fluoro-ethyl)-1,3-dihydro-isoindol-2-yl]-methanone], the IC50 came to 0.022 µM.
Regarding `CC(C)(C)COc1ccc(S(C)(=O)=O)cc1C(=O)N1Cc2ccc(C3CCOCC3)cc2C1` [Example 273, [2-(2,2-Dimethyl-propoxy)-5-methane-sulfonyl-phenyl]-[5-(tetrahydro-pyran-4-yl)-1,3-dihydro-isoindol-2-yl]-methanone], the IC50 stood at 0.047 µM.
As to `CS(=O)(=O)c1ccc(OCC(F)(F)C(F)(F)F)c(C(=O)N2Cc3cc(C(F)(F)F)cnc3C2)c1` [Example 157, [5-Methanesulfonyl-2-(2,2,3,3,3-pentafluoro-propoxy)-phenyl]-(3-trifluoromethyl-5,7-dihydro-pyrrolo[3,4-b]pyridin-6-yl)-methanone], the IC50 was determined as 0.025 µM.
In the case of `C[C@H](Oc1ccc(S(C)(=O)=O)cc1C(=O)N1Cc2ccc(OCCC(F)(F)F)cc2C1)C(F)(F)F` [Example 370, [5-Methanesulfonyl-2-((S)-2,2,2-trifluoro-1-methyl-ethoxy)-phenyl]-[5-(3,3,3-trifluoro-propoxy)-1,3-dihydro-isoindol-2-yl]-methanone], the IC50 turned out to be 0.047 µM.
Regarding `C[C@H](Oc1ccc(S(C)(=O)=O)cc1C(=O)N1Cc2cnc(-c3ccc(F)cc3)cc2C1)C(F)(F)F` [Example 321, [6-(4-Fluoro-phenyl)-1,3-dihydro-pyrrolo[3,4-c]pyridin-2-yl]-[5-methanesulfonyl-2-((S)-2,2,2-trifluoro-1-methyl-ethoxy)-phenyl]-methanone], the IC50 was determined as 0.034 µM.
`Cc1cc(-c2ccc3c(c2)CN(C(=O)c2cc(S(C)(=O)=O)ccc2O[C@@H](C)C(F)(F)F)C3)cs1` [Example 170, [5-Methanesulfonyl-2-((S)-2,2,2-trifluoro-1-methyl-ethoxy)-phenyl]-[5-(5-methyl-thiophen-3-yl)-1,3-dihydro-isoindol-2-yl]-methanone]: the IC50 came to 0.048 µM.
As for `CC(C)Sc1ccc(S(C)(=O)=O)cc1C(=O)N1Cc2cc(Cl)c(Cl)cc2C1` [Example 16, (5,6-Dichloro-1,3-dihydro-isoindol-2-yl)-(2-isopropylsulfanyl-5-methanesulfonyl-phenyl)-methanone], the half-maximal inhibitory concentration (IC50) turned out to be 0.048 µM.
As for `CS(=O)(=O)c1ccc(-c2cccc(F)c2)c(C(=O)N2Cc3cc(Cl)c(N4CCOCC4)cc3C2)c1` [Example 255, (5-Chloro-6-morpho-lin-4-yl-1,3-dihydro-isoindol-2-yl)-(3′-fluoro-4-methane-sulfonyl-biphenyl-2-yl)-methanone], the IC50 was determined as 0.017 µM.
On to `C[C@@H](Oc1ccc(S(C)(=O)=O)cc1C(=O)N1Cc2cc(C(F)(F)F)cnc2C1)C(F)(F)F` [Example 139, [5-Methanesulfonyl-2-((R)-2,2,2-trifluoro-1-methyl-ethoxy)-phenyl]-(3-trifluoro-methyl-5,7-dihydro-pyrrolo[3,4-b]pyridin-6-yl)-methanone], for which the IC50 worked out at 0.014 µM.
`CS(=O)(=O)c1ccc(OCC(F)(F)C(F)(F)F)c(C(=O)N2Cc3cc(Cl)c(OC4CCOCC4)cc3C2)c1` [Example 380, [5-Chloro-6-(tetrahydro-pyran-4-yloxy)-1,3-dihydro-isoindol-2-yl]-[5-methanesulfonyl-2-(2,2,3,3,3-pentafluoro-propoxy)-phenyl]-methanone]: the IC50 was 0.005 µM.
For `CS(=O)(=O)c1ccc(-c2ccc(F)cc2)c(C(=O)N2Cc3cnc(C(F)(F)F)cc3C2)c1` [Example 121, (4′-Fluoro-4-methanesulfonyl-biphenyl-2-yl)-(6-trifluoromethyl-1,3-dihydro-pyrrolo[3,4-c]pyridin-2-yl)-methanone], the IC50 was found to be 0.047 µM.
As for `C[C@H](Oc1ccc(S(C)(=O)=O)cc1C(=O)N1Cc2cnc(N3CCOCC3)cc2C1)C(F)(F)F` [Example 356, [5-Methanesulfonyl-2-((S)-2,2,2-trifluoro-1-methyl-ethoxy)-phenyl]-(6-morpholin-4-yl-1,3-dihydro-pyrrolo[3,4-c]pyridin-2-yl)-methanone], the IC50 came out at 0.013 µM.
